Assay results published in US20250115654A1, “PHARMACEUTICAL COMPOSITION OF GLP-1 RECEPTOR AND GIP RECEPTOR DUAL AGONIST, AND USE THEREOF” (FUJIAN SHENGDI PHARMACEUTICAL CO., LTD., priority 2021, published 2025).
Numbered stars: 1 amine (or outer) side, 2 acyl side, 3 side chain; on linkers, the order of the positions; unused ones are H or OH. Square brackets hold non-standard residues; d marks the D form. Side chains are listed from the residue outwards. Peptide text beside a SMILES is read from it. * marks the point of attachment. C20 diacid = O=C(O)CCCCCCCCCCCCCCCCCCC(=O)*; γGlu = O=C(O)[C@H](CCC(=O)[*:2])N[*:1]; AEEA = NCCOCCOCC(=O)O; Aib = CC(C)(N)C(=O)O

Assays:
db/db mice = test: Glucose metabolism level of db/db mice (fasting and random blood glucose, glycated hemoglobin); assay type: in vivo, C57BL/KsJ-db/db mice; details: for Glycated hemoglobin (%, mean ± SD): end of experiment day 28
Description: Each administration group had 10 db/db mice. According to the experimental design, tail vein blood was collected by needle pricking on days 0, 7, 14, 21, and 28 and determined for fasting blood glucose levels with a glucometer and glucose dipsticks, and the mice were fasted 6 h prior to the blood collection at each time point. Tail vein blood was collected by needle pricking on days 3, 10, 17, 24, and 27 and randomly determined for blood glucose levels with a glucometer. Finally, at the end of the experiment on day 28, all the animals in the administration groups were subjected to 2-5% isoflurane inhalation anesthesia, and 100 μL of whole blood was collected through the orbit of each mouse using an EDTA-K2 anticoagulation tube and used for the determination of glycated hemoglobin.

DIO mice = test: Food intake of DIO (diet-induced obesity) mice; assay type: in vivo, C57BL/6 mice; details: 3 nmol/kg
Description: High-fat food-induced-obesity male C57BL/6 mice (weighing 35-55 g, aged 10-12 weeks, purchased from Shanghai Jiesijie Laboratory Animal Co., Ltd.) were tested. […] According to the experimental design, the body weight of each mouse was measured and recorded on day 0, day 3, day 6, and so on to day 27, the average body weight of each group of mice was calculated, and body weight change curves were plotted by taking the body weight on the first day as the standard. At the end, the fat and other visceral organs of each part of the mice were taken out and weighed, and the viscera/brain ratio for fat in each part of each mouse was calculated. The effect of the drug on the fat was determined by comparing the change in the viscera/brain ratio for fat of different parts of each group of mice.
The food intake of mice in each group was measured daily during the experiment.

## CC[C@H](C)[C@H](NC(=O)[C@H](CCCCN)NC(=O)[C@H](CCC(=O)O)NC(=O)[C@H](CCCCNC(=O)COCCOCCNC(=O)COCCOCCNC(=O)CC[C@H](NC(=O)CCCCCCCCCCCCCCCCCCC(=O)O)C(=O)O)NC(=O)[C@H](Cc1ccc(O)cc1)NC(=O)[C@@H](NC(=O)[C@H](CO)NC(=O)[C@H](Cc1ccc(O)cc1)NC(=O)[C@H](CC(=O)O)NC(=O)[C@H](CO)NC(=O)[C@@H](NC(=O)[C@H](Cc1ccccc1)NC(=O)[C@@H](NC(=O)CNC(=O)[C@H](CCC(=O)O)NC(=O)C(C)(C)NC(=O)[C@@H](N)Cc1ccc(O)cc1)[C@@H](C)O)[C@@H](C)O)[C@@H](C)CC)C(=O)N[C@@H](C)C(=O)N[C@@H](C)C(=O)N[C@@H](CCC(N)=O)C(=O)N[C@@H](CCC(=O)O)C(=O)N[C@@H](Cc1ccccc1)C(=O)N[C@H](C(=O)N[C@@H](CC(N)=O)C(=O)N[C@@H](Cc1c[nH]c2ccccc12)C(=O)N[C@@H](CC(C)C)C(=O)N[C@@H](CC(C)C)C(=O)N[C@@H](C)C(=O)NCC(=O)NCC(=O)N1CCC[C@H]1C(=O)N[C@@H](CO)C(=O)N[C@@H](CO)C(=O)NCC(=O)N[C@@H](C)C(=O)N1CCC[C@H]1C(=O)N1CCC[C@H]1C(=O)N1CCC[C@H]1C(=O)N[C@@H](CO)C(N)=O)C(C)C [Compound 18#] (H-Y[Aib]EGTFTSDYSIYK([AEEA-AEEA-γGlu-C20 diacid])EKIAAQEFVNWLLAGGPSSGAPPPS-NH2)
db/db mice; 10 nmol/kg, Day 0
  Concentration of fasting blood glucose (mMol/L, mean ± SD): 14.77 ± 1.30 mmol/L
  Concentration of random blood glucose (mMol/L, mean ± SD): 20.42 ± 1.56 mmol/L
db/db mice; 10 nmol/kg, Day 7
  Concentration of fasting blood glucose (mMol/L, mean ± SD): 6.05 ± 0.42 mmol/L
db/db mice; 10 nmol/kg, Day 10
  Concentration of random blood glucose (mMol/L, mean ± SD): 20.66 ± 1.48 mmol/L
db/db mice; 10 nmol/kg, Day 14
  Concentration of fasting blood glucose (mMol/L, mean ± SD): 6.30 ± 0.46 mmol/L
db/db mice; 10 nmol/kg, Day 17
  Concentration of random blood glucose (mMol/L, mean ± SD): 18.91 ± 1.33 mmol/L
db/db mice; 10 nmol/kg, Day 21
  Concentration of fasting blood glucose (mMol/L, mean ± SD): 7.89 ± 0.81 mmol/L
db/db mice; 10 nmol/kg, Day 24
  Concentration of random blood glucose (mMol/L, mean ± SD): 21.17 ± 2.07 mmol/L
db/db mice; 10 nmol/kg, Day 28
  Concentration of fasting blood glucose (mMol/L, mean ± SD): 9.41 ± 0.97 mmol/L
db/db mice; 10 nmol/kg
  Glycated hemoglobin (%, mean ± SD): 4.71 ± 0.23 %
db/db mice; 30 nmol/kg, Day 0
  Concentration of fasting blood glucose (mMol/L, mean ± SD): 14.13 ± 1.32 mmol/L
  Concentration of random blood glucose (mMol/L, mean ± SD): 16.73 ± 1.59 mmol/L
db/db mice; 30 nmol/kg, Day 7
  Concentration of fasting blood glucose (mMol/L, mean ± SD): 6.21 ± 0.26 mmol/L
db/db mice; 30 nmol/kg, Day 10
  Concentration of random blood glucose (mMol/L, mean ± SD): 15.88 ± 1.86 mmol/L
db/db mice; 30 nmol/kg, Day 14
  Concentration of fasting blood glucose (mMol/L, mean ± SD): 6.40 ± 0.57 mmol/L
db/db mice; 30 nmol/kg, Day 17
  Concentration of random blood glucose (mMol/L, mean ± SD): 17.30 ± 1.17 mmol/L
db/db mice; 30 nmol/kg, Day 21
  Concentration of fasting blood glucose (mMol/L, mean ± SD): 7.03 ± 0.52 mmol/L
db/db mice; 30 nmol/kg, Day 24
  Concentration of random blood glucose (mMol/L, mean ± SD): 17.43 ± 1.92 mmol/L
db/db mice; 30 nmol/kg, Day 28
  Concentration of fasting blood glucose (mMol/L, mean ± SD): 9.68 ± 1.03 mmol/L
db/db mice; 30 nmol/kg
  Glycated hemoglobin (%, mean ± SD): 4.53 ± 0.17 %
db/db mice; 100 nmol/kg, Day 0
  Concentration of fasting blood glucose (mMol/L, mean ± SD): 14.67 ± 1.46 mmol/L
  Concentration of random blood glucose (mMol/L, mean ± SD): 9.11 ± 1.25 mmol/L
db/db mice; 100 nmol/kg, Day 7
  Concentration of fasting blood glucose (mMol/L, mean ± SD): 5.85 ± 0.33 mmol/L
db/db mice; 100 nmol/kg, Day 10
  Concentration of random blood glucose (mMol/L, mean ± SD): 12.34 ± 1.12 mmol/L
db/db mice; 100 nmol/kg, Day 14
  Concentration of fasting blood glucose (mMol/L, mean ± SD): 6.25 ± 0.32 mmol/L
db/db mice; 100 nmol/kg, Day 17
  Concentration of random blood glucose (mMol/L, mean ± SD): 11.89 ± 1.15 mmol/L
db/db mice; 100 nmol/kg, Day 21
  Concentration of fasting blood glucose (mMol/L, mean ± SD): 6.13 ± 0.19 mmol/L
db/db mice; 100 nmol/kg, Day 24
  Concentration of random blood glucose (mMol/L, mean ± SD): 11.51 ± 0.95 mmol/L
db/db mice; 100 nmol/kg, Day 28
  Concentration of fasting blood glucose (mMol/L, mean ± SD): 7.89 ± 0.41 mmol/L
db/db mice; 100 nmol/kg, listed as 18#
  Glycated hemoglobin (%, mean ± SD): 3.78%
db/db mice; 100 nmol/kg, listed as #18
  Glycated hemoglobin (%, mean ± SD): 3.78 ± 0.13 %
DIO mice; 28 days after the administration
  cumulative food intake: 58.2 g
DIO mice; day 1 after administration
  daily food intake ration: 0.6 ± 0.1 g
DIO mice; day 1 after administration, listed as 18#
  daily food intake ration: 0.6 g
DIO mice; day 2 after administration
  daily food intake ration: 1.3 ± 0.5 g
DIO mice; day 3 after administration
  daily food intake ration: 2 ± 0.5 g
DIO mice; day 4 after administration
  daily food intake ration: 1.1 ± 0.4 g
DIO mice; day 5 after administration
  daily food intake ration: 2.2 ± 1.3 g
DIO mice; day 6 after administration
  daily food intake ration: 2.1 ± 1.1 g
DIO mice; day 7 after administration
  daily food intake ration: 1.1 ± 0.6 g
DIO mice; day 8 after administration
  daily food intake ration: 1.6 ± 0.6 g
DIO mice; day 9 after administration
  daily food intake ration: 2.5 ± 0.9 g
DIO mice; day 10 after administration
  daily food intake ration: 1.3 ± 0.6 g
DIO mice; day 11 after administration
  daily food intake ration: 2 ± 0.3 g
DIO mice; day 12 after administration
  daily food intake ration: 3 ± 1 g
DIO mice; day 13 after administration
  daily food intake ration: 1.8 ± 1 g
DIO mice; day 14 after administration
  daily food intake ration: 2.3 ± 1 g
DIO mice; day 15 after administration
  daily food intake ration: 2.9 ± 0.7 g
DIO mice; day 16 after administration
  daily food intake ration: 1.5 ± 0.7 g
DIO mice; day 17 after administration
  daily food intake ration: 2.2 ± 0.5 g
DIO mice; day 18 after administration
  daily food intake ration: 2.7 ± 0.3 g
DIO mice; day 19 after administration
  daily food intake ration: 1.7 ± 0.5 g
DIO mice; day 20 after administration
  daily food intake ration: 2.2 ± 0.5 g
DIO mice; day 21 after administration
  daily food intake ration: 3.4 ± 0.4 g
DIO mice; day 22 after administration
  daily food intake ration: 1.8 ± 0.5 g
DIO mice; day 23 after administration
  daily food intake ration: 2.6 ± 0.4 g
DIO mice; day 24 after administration
  daily food intake ration: 2.9 ± 0.5 g
DIO mice; day 25 after administration
  daily food intake ration: 1.8 ± 0.8 g
DIO mice; day 26 after administration
  daily food intake ration: 2.5 ± 0.9 g
DIO mice; day 27 after administration
  daily food intake ration: 3.9 ± 0.5 g
DIO mice; day 28 after administration
  daily food intake ration: 1.3 ± 0.6 g
DIO mice; within 5 days after the administration
  cumulative food intake: 7.2 g
